Test: Concentration of trehalose dissolved in PBS
Assay type: physicochemical
Settings: PBS at 37° C.
Experimental: Also, the maximum concentration of trehalose was set to 50% because the concentration of trehalose dissolved in PBS at 37° C. was about 50%.

In the case of `OC[C@H]1O[C@H](O[C@H]2O[C@H](CO)[C@@H](O)[C@H](O)[C@H]2O)[C@H](O)[C@@H](O)[C@@H]1O` [trehalose], the “concentration of trehalose dissolved in PBS” value was “about 50%”.

— patent US10660977B2, “Method for treating biological tissue and biological tissue” (WASEDA UNIVERSITY, priority 2012, dated 2020)
